Experimental findings from ChEMBL document CHEMBL3286290, “In vitro screening of pentamidine analogs against bacterial and fungal strains” (Bioorg Med Chem Lett, 2014) are described below.

Type in all cases: functional
In experiment [1] the test system is Pseudomonas aeruginosa. As to the kind of experiment: Antibacterial activity against Pseudomonas aeruginosa ATCC 15442 assessed as growth inhibition by M7-A6 method.
Experiment [2] concerns Pseudomonas aeruginosa. The experiment can be described thus: Antibacterial activity against Pseudomonas aeruginosa ATCC 9027 assessed as growth inhibition by M7-A6 method.
In experiment [3] the test system is Escherichia coli. As to the kind of experiment: Antibacterial activity against Escherichia coli ATCC 10536 assessed as growth inhibition by M7-A6 method.
The test system of experiment [4] is Candida albicans. The experiment can be described thus: Antifungal activity against Candida albicans ATCC 10231 assessed as growth inhibition by M7-A6 method.
Experiment [5] deals with Micrococcus luteus. The experiment can be described thus: Antibacterial activity against Micrococcus luteus ATCC 9341 assessed as growth inhibition by M7-A6 method.
The test system of experiment [6] is Micrococcus luteus. As to the kind of experiment: Antibacterial activity against Micrococcus luteus ATCC 10240 assessed as growth inhibition by M7-A6 method.
A further experiment relates to Bacillus subtilis. As to the kind of experiment: Antibacterial activity against Bacillus subtilis ATCC 6633 assessed as growth inhibition by M7-A6 method.
The subject of another experiment is Candida parapsilosis. As to the kind of experiment: Antifungal activity against Candida parapsilosis ATCC 22019 assessed as growth inhibition by M7-A6 method. As to conditions: Lodderomyces parapsilosis.
The test system of experiment [7] is Candida albicans. As to the kind of experiment: Antifungal activity against Candida albicans ATCC 2091 assessed as growth inhibition by M7-A6 method.
The test system of experiment [8] is Staphylococcus aureus. The experiment can be described thus: Antibacterial activity against Staphylococcus aureus ATCC 6538 assessed as growth inhibition by M7-A6 method.
In experiment [9] the test system is Staphylococcus aureus. As to the kind of experiment: Antibacterial activity against Staphylococcus aureus ATCC 6538P assessed as growth inhibition by M7-A6 method.
Experiment [10] relates to Escherichia coli. The experiment can be described thus: Antibacterial activity against Escherichia coli ATCC 8739 assessed as growth inhibition by M7-A6 method.
For another experiment, the system named is Bacillus cereus. The experiment can be described thus: Antibacterial activity against Bacillus cereus ATCC 11778 assessed as growth inhibition by M7-A6 method.
The next experiment relates to Aspergillus brasiliensis. As to the kind of experiment: Antifungal activity against Aspergillus brasiliensis ATCC 16404 assessed as growth inhibition by M7-A6 method.
In the next experiment the test system is Saccharomyces cerevisiae. The experiment can be described thus: Antifungal activity against Saccharomyces cerevisiae ATCC 9763 assessed as growth inhibition by M7-A6 method.

≈ marks a conversion by molar mass, not a printed value. Where only a bound is given, the exact number is not on record here.

As a reminder, the MIC is the least concentration at which growth counts as inhibited.

As for `COc1cc(C(=N)N)ccc1OCCN(C)CCOc1ccc(C(=N)N)cc1OC`, the MIC is over 16.3 mM in the experiment on Pseudomonas aeruginosa [1]; over 16.3 mM with Pseudomonas aeruginosa [2]; 16.3 mM (≈ 6760 µg/mL) with Escherichia coli [3]; over 16.3 mM in the experiment with Candida albicans [4]; 0.2 mM (≈ 83.1 µg/mL) in the experiment with Micrococcus luteus [5]; 0.41 mM (≈ 170 µg/mL) in the experiment on Micrococcus luteus [6]. In addition, the MIC in the experiment with Bacillus subtilis was 0.81 mM (≈ 337 µg/mL); in the experiment on Candida parapsilosis, over 16.3 mM; in the experiment on Candida albicans [7], over 16.3 mM; in the experiment with Staphylococcus aureus [8], 8.13 mM (≈ 3380 µg/mL); in the experiment on Staphylococcus aureus [9], 8.13 mM (≈ 3380 µg/mL); with Escherichia coli [10], 8.13 mM (≈ 3380 µg/mL). Besides, in the experiment on Bacillus cereus, the minimum inhibitory concentration (MIC) amounted to 0.1 mM (≈ 41.5 µg/mL).
With `COc1cc(C(=N)N)cc(OC)c1OCCN(C)CCOc1c(OC)cc(C(=N)N)cc1OC`, the MIC in the experiment on Pseudomonas aeruginosa [1] is over 15.2 mM; in the experiment on Pseudomonas aeruginosa [2] it was over 15.2 mM; with Escherichia coli [3] it was 15.2 mM (≈ 7240 µg/mL); with Candida albicans [4] it was over 15.2 mM; with Micrococcus luteus [5], 0.76 mM (≈ 361 µg/mL); in the experiment on Micrococcus luteus [6], 1.52 mM (≈ 723 µg/mL). In addition, the MIC in the experiment on Bacillus subtilis was 1.52 mM (≈ 723 µg/mL); in the experiment with Candida parapsilosis, over 15.2 mM; in the experiment with Candida albicans [7] it was over 15.2 mM; in the experiment on Staphylococcus aureus [8] it was 7.61 mM (≈ 3620 µg/mL); in the experiment on Staphylococcus aureus [9], 7.61 mM (≈ 3620 µg/mL); with Escherichia coli [10], 7.61 mM (≈ 3620 µg/mL). Further, the MIC with Bacillus cereus is 7.61 mM (≈ 3620 µg/mL).
Turning to `COc1cc(C(=N)N)cc(OC)c1OCCOCCOc1c(OC)cc(C(=N)N)cc1OC`, the minimal inhibitory concentration (MIC) with Pseudomonas aeruginosa [1] was over 17 mM; in the experiment on Pseudomonas aeruginosa [2], over 17 mM; with Escherichia coli [3] it was 17 mM (≈ 7840 µg/mL); in the experiment on Candida albicans [4] it was over 17 mM; with Micrococcus luteus [5] it was 0.017 mM (≈ 7.86 µg/mL); with Micrococcus luteus [6], 0.051 mM (≈ 23.6 µg/mL). The MIC was 0.42 mM (≈ 194 µg/mL) in the experiment with Bacillus subtilis; over 17 mM in the experiment with Candida parapsilosis; over 17 mM in the experiment on Candida albicans [7]; 0.21 mM (≈ 97.1 µg/mL) in the experiment on Staphylococcus aureus [8]; 0.21 mM (≈ 97.1 µg/mL) with Staphylococcus aureus [9]; 17 mM (≈ 7840 µg/mL) in the experiment with Escherichia coli [10]. The MIC in the experiment with Bacillus cereus worked out at 17 mM (≈ 7840 µg/mL).
For the molecule `CN(CCOc1ccc(C(=N)N)cc1)CCOc1ccc(C(=N)N)cc1`, the minimal inhibitory concentration (MIC) with Pseudomonas aeruginosa [1] was over 21.1 mM; in the experiment on Pseudomonas aeruginosa [2] it was over 21.1 mM; in the experiment with Escherichia coli [3] it was 21.1 mM (≈ 7500 µg/mL); in the experiment on Candida albicans [4], over 21.1 mM; in the experiment on Micrococcus luteus [5] it was 1.06 mM (≈ 377 µg/mL); in the experiment on Micrococcus luteus [6], 1.06 mM (≈ 377 µg/mL). The MIC with Bacillus subtilis was 2.11 mM (≈ 750 µg/mL); with Candida parapsilosis, 10.6 mM (≈ 3770 µg/mL); in the experiment with Candida albicans [7], over 21.1 mM; in the experiment with Staphylococcus aureus [8] it was 21.1 mM (≈ 7500 µg/mL); in the experiment on Staphylococcus aureus [9], 10.6 mM (≈ 3770 µg/mL); in the experiment on Escherichia coli [10], 21.1 mM (≈ 7500 µg/mL). Besides, in the experiment on Bacillus cereus, the MIC was determined as 1.06 mM (≈ 377 µg/mL).
Regarding `COc1cc(C(=N)N)ccc1OCCOCCOc1ccc(C(=N)N)cc1OC`, the MIC in the experiment with Pseudomonas aeruginosa [1] was over 21 mM; in the experiment with Pseudomonas aeruginosa [2], over 21 mM; in the experiment with Escherichia coli [3] it was 10.5 mM (≈ 4230 µg/mL); with Aspergillus brasiliensis, 21 mM (≈ 8470 µg/mL); in the experiment on Candida albicans [4], 10.5 mM (≈ 4230 µg/mL); in the experiment on Micrococcus luteus [5], 2.1 mM (≈ 845 µg/mL). The MIC in the experiment on Saccharomyces cerevisiae came out at 10.5 mM (≈ 4230 µg/mL); in the experiment on Micrococcus luteus [6], 0.52 mM (≈ 209 µg/mL); with Bacillus subtilis it was 2.1 mM (≈ 845 µg/mL); with Candida parapsilosis it was 5.26 mM (≈ 2120 µg/mL); with Candida albicans [7], 10.5 mM (≈ 4230 µg/mL); in the experiment on Staphylococcus aureus [8], 0.26 mM (≈ 105 µg/mL). For the same molecule, the MIC with Staphylococcus aureus [9] was found to be 0.52 mM (≈ 209 µg/mL); in the experiment with Escherichia coli [10] it was 2.1 mM (≈ 845 µg/mL); in the experiment with Bacillus cereus, 1.05 mM (≈ 423 µg/mL).
Regarding `N=C(N)c1ccc(OCCOCCOc2ccc(C(=N)N)cc2)cc1`, the MIC in the experiment with Pseudomonas aeruginosa [1] was 11.1 mM (≈ 3790 µg/mL); with Pseudomonas aeruginosa [2] it was 11.1 mM (≈ 3790 µg/mL); in the experiment on Escherichia coli [3], 0.55 mM (≈ 188 µg/mL); in the experiment with Aspergillus brasiliensis, over 22.2 mM; in the experiment on Candida albicans [4], over 22.2 mM; in the experiment on Micrococcus luteus [5] it was 0.0044 mM (≈ 1.51 µg/mL). Also, the MIC in the experiment on Saccharomyces cerevisiae is 11.1 mM (≈ 3790 µg/mL); with Micrococcus luteus [6], 0.011 mM (≈ 3.77 µg/mL); in the experiment with Bacillus subtilis, 0.55 mM (≈ 188 µg/mL); with Candida parapsilosis it was 0.066 mM (≈ 22.6 µg/mL); in the experiment on Candida albicans [7], over 22.2 mM; in the experiment on Staphylococcus aureus [8], 0.55 mM (≈ 188 µg/mL). For the same molecule, the MIC with Staphylococcus aureus [9], in the experiment with Escherichia coli [10] and in the experiment on Bacillus cereus was 0.55 mM (≈ 188 µg/mL) in each case.
